Assay results published in paper PMC10605010, “Immunotechniques for the Group Determination of Macrolide Antibiotics Traces in the Environment Using a Volume-Mediated Sensitivity Enhancement Strategy” (Biosensors, 2023).
Values after ≈ are worked out from the molar mass of the structure shown.

Legend:
[1] = system: antibody, immunogen Commercial; parameters: method as in doi:10.1007/s12161-015-0130-x; conditions: milk; cited from earlier work
[2] = system: anti-BSA-cmoCLA(ae) antibody; assay: PrG-ELISA, self-assembly on coated protein G, direct competitive; format: binding, rabbit; conditions: 1.5 h, coating Ab 200 µL, standard/sample 250 µL
Excerpt: (§1) Another important consideration was the enhancement of the functional activity of antibodies through their oriented immobilization on the surface of polystyrene and its potential impact on the method sensitivity. This was achieved by interacting the adsorbed protein G with the antibody Fc fragments, allowing the antibody-binding fragments to remain spatially accessible. This interaction could be implemented in a step-by-step manner or as a result of self-assembly (Figure 4A). The step-by-step procedure involved the initial formation of a complex between the coated protein G and the antibody (PrG-Ab), followed by a competitive assay step. An alternative self-assembly method implied the competitive interaction of antibody with an analyte (sample) and a tracer in the solution with simultaneous binding to the coated protein G (PrG).

[3] = system: antibody to immunogen BSA-cmoCLA(ae); parameters: method as in PMID 32693204; conditions: breast milk; CLA = 100; cited from earlier work
[4] = system: anti-BSA-cmoCLA(ae) antibodies; assay: Indirect competitive ELISA (icELISA), variants by coating antigen; format: binding, rabbit; conditions: for CR: CLA = 100
Description: In present work, we investigated and compared several new-designed and previously established coating antigens, which were adsorbed on the 96-well Costar plates from 0.1 to 3.0 µg/mL solutions in CBB (pH 9.6) overnight at 4 °C. […] Solutions of these analytes (1 pg/mL–1 μg/mL) were added to wells of the plate along with anti-cmoCLA antibody in PBS-T with 1%BSA and incubated for 1 h at 25 °C in plate-shaker ST-3 L (ELMI Ltd. laboratory equipment, Riga, Latvia). GAR-HRP was used to detect antigen-antibody formed complexes for 1 h at 37 °C. The activity of the bound enzyme was detected using TMB-substrate mixture, and the intensity of colored product was read at 450 nm using a LisaScan spectrophotometer (Erba Mannheim, Czech Republic). […] The relative antibody-binding absorbance (B/B0) was determined for each concentration of analyte and used to construct a calibration curve as B/B0 versus the concentration. Structurally related macrolides CLA, ESE, ROX, AZI, DIR, TUL, and OLE were analyzed for their cross-reactions. […] Assay sensitivity, limit of detection (LOD), and working range of the assay were set as values of IC50, IC10, and IC20-IC80 range, respectively.

[5] = system: anti-BSA-cmoCLA(ae) antibody; assay: PrG-Ab-ELISA, step-by-step oriented antibody coating via protein G, direct competitive; format: binding, rabbit; conditions: 0.5 h, coating Ab 200 µL, standard/sample 250 µL
Excerpt: as §1

[6] = system: antibody to immunogen BSA-cmoERY(ma); parameters: method as in PMID 25308648; conditions: milk, cited from earlier work
[7] = coating antigen OVA-aecAZI(dma)

## CC[C@H]1OC(=O)[C@H](C)[C@@H](O[C@H]2C[C@@](C)(OC)[C@@H](O)[C@H](C)O2)[C@H](C)[C@@H](O[C@@H]2O[C@H](C)C[C@H](N(C)C)[C@H]2O)[C@](C)(O)C[C@@H](C)C(=O)[C@H](C)[C@@H](O)[C@]1(C)O [ERY, Erythromycin]
[1]
  CR: 100%
  LOD: ni//5 ng/mL
[2]
  IC10 (LOD): 0.007 ng/mL (≈ 0.00954 nM)
  IC20-IC80 (working range): 0.015 to 0.199 ng/mL
  IC50: 0.055 ng/mL (≈ 0.0749 nM)
[3]
  CR: 7.5%
[4]; coating antigen OVA(pi)-aecAZI
  IC50: 0.042 ng/mL (≈ 0.0572 nM)
  CR: 105%
[4]; coating antigen OVA(pi)-aecAZI, water
  LOD: 0.01 ng/mL
[4]; [7]
  IC50: 0.223 ng/mL (≈ 0.304 nM)
  CR: 70.4%
[4]; coating antigen OVA-aecAZI(ga)
  IC50: 0.049 ng/mL (≈ 0.0668 nM)
  CR: 87.8%
[4]; coating antigen OVA-cmoERY(ae)
  IC50: 0.240 ng/mL (≈ 0.327 nM)
  CR: 71.7%
[5]
  IC10 (LOD): 0.002 ng/mL (≈ 0.00273 nM)
  IC20-IC80 (working range): 0.006 to 0.054 ng/mL
  IC50: 0.020 ng/mL (≈ 0.0273 nM)
[6]; ERY = 100
  CR: 100%
[6]
  IC50: 0.94 ng/mL (≈ 1.28 nM)
  LOD: 0.3 ng/mL
